In publication PMC6556873, “Rapid Covalent-Probe Discovery by Electrophile-Fragment Screening” (Journal of the American Chemical Society, 2019):
Read-outs that look alike come from different tables or passages of the source.

Columns and labels:
[1] = in vitro; design: species or system HB2, HEK293; conditions: human, ccd841 cells
[2] = in vitro; design: species or system CCD841, HEK293; conditions: human, hb2 cells, read-out: HB-2 Cells Viability (%)
[3] = in vitro; design: species or system HB2, CCD841; conditions: human, hek293 cells
[4] = biological target: T1, OTUB2 (OTUB2A) (Homo sapiens, UniProt Q96DC9); design: Intact protein LC/MS covalent labelling, fragments in pools of five, 200 uM each, 4 °C; conditions: 24 h, 4 °C, pool of five; 200 µM; covalent
T1 construct: full length residues 1-234, E. coli BL21(DE3)-R3, His tag removed by TEV, construct 27312 Da
T1 sequence (Q96DC9 1-234): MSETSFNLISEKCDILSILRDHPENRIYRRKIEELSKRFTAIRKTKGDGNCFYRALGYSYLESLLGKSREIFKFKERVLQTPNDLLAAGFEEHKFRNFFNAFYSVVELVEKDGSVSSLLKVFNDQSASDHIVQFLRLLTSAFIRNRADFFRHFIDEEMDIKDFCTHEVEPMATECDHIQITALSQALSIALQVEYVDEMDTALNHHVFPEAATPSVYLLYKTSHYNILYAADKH

[5] = biological target: T2, BSA (Bos taurus, UniProt P02769); design: Intact protein LC/MS covalent labelling, fragments in pools of five, 200 uM each, 4 °C; conditions: 24 h, 4 °C, pool of five; 200 µM; covalent
T2 construct: gene ALB
T2 sequence (P02769 whole entry, the tested form may be a part): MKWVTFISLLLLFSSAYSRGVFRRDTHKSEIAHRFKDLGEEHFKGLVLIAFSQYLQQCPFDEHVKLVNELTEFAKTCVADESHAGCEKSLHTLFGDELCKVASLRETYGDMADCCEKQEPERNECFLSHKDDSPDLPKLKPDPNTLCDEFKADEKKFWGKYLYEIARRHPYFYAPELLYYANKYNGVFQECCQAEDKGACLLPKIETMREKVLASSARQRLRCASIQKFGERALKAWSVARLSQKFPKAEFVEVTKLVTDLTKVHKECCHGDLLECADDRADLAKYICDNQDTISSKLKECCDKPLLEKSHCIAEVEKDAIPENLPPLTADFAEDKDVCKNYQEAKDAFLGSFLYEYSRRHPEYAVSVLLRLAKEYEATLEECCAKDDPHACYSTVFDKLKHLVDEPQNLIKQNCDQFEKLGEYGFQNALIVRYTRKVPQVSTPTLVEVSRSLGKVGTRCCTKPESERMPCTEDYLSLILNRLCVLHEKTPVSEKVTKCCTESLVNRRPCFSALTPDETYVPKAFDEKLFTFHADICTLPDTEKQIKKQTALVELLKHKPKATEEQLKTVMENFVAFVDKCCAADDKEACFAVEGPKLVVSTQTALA

[6] = biological target: T3, PCAF (Homo sapiens, UniProt Q92831); design: Intact protein LC/MS covalent labelling, fragments in pools of five, 200 uM each, 4 °C; conditions: 24 h, 4 °C, pool of five; 200 µM; covalent
T3 construct: gene KAT2B
T3 sequence (Q92831 whole entry, the tested form may be a part): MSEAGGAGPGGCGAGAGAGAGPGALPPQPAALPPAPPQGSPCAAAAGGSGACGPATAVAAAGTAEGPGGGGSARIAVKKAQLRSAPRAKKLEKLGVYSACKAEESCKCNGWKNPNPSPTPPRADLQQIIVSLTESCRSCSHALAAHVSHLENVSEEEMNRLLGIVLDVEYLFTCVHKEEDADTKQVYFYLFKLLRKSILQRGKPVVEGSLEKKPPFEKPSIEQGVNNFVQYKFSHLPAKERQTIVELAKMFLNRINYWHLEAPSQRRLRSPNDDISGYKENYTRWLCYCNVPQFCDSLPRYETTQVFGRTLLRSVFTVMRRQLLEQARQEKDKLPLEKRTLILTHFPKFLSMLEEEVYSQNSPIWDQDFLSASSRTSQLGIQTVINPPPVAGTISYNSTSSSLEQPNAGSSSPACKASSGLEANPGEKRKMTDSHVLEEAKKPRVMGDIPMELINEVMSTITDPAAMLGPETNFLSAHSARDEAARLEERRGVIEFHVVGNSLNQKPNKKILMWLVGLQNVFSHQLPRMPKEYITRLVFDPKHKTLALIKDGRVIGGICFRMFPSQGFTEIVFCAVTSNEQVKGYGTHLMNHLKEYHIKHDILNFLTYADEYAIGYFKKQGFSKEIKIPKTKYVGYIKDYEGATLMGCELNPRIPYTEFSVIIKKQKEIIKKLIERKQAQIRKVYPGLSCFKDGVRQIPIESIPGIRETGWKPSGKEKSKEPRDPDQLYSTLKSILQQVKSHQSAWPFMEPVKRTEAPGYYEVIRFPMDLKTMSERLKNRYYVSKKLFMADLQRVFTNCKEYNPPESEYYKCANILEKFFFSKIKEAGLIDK

[7] = biological target: T4, NUDT7 (Homo sapiens, UniProt P0C024); design: Intact protein LC/MS covalent labelling, fragments in pools of five, 200 uM each, 4 °C; conditions: 24 h, 4 °C, pool of five; 200 µM; covalent
T4 construct: residues 14-235, E. coli, pNIC28-Bsa4, N-terminal His6 tag removed by TEV, construct 26672 Da
T4 sequence (P0C024 14-235): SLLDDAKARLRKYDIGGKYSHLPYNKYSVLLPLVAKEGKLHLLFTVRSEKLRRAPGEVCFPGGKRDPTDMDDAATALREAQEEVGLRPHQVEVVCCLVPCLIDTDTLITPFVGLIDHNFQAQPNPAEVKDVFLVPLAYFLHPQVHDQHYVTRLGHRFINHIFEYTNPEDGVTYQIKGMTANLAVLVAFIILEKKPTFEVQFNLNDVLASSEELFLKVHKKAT

Compound | viability at 48 h, 10 µM [1] | viability at 48 h, 10 µM [2] | viability at 48 h, 10 µM [3] | OTUB2 [4] | BSA [5] | PCAF [6] | NUDT7 [7]
C=CC(=O)N1Cc2ccccc2CC1c1nnc(CC)o1 (stereo not drawn) [PCM-0103005] | 79.4% | 96.8% | 93.2% | 0 | 0 | 0 | 0
O=C1CN(C(=O)CCl)CCN1 [PCM-0103008] | 92.8% | 95.3% | 86.5% | 0 | 0 | 0 | 0
CC(=O)c1cc2c(cc1NC(=O)CCl)OCO2 [PCM-0103010] | 86% | 59.9% | 69.5% | 0 | 0 | 0 | 0.14
O=C(CCl)NCC#Cc1cccc(C(F)(F)F)c1 [PCM-0103011] | 77.4% | 56.8% | 52.5% | 0.84 | 0 | 0 | 0
NS(=O)(=O)c1ccc(Cl)c(NC(=O)CCl)c1 [PCM-0103012] | 67.1% | 54.7% | 11.9% | 0.1 | 0 | 0 | 0
Cc1ccccc1C(=O)NC1CCN(C(=O)CCl)CC1 [PCM-0103013] | 76.5% | 84.4% | 58.4% | 0 | 0.1 | 0 | 0
CC(C)C(=O)NNC(=O)CCl [PCM-0103014] | 95.1% | 98.8% | 126% | 0.09 | 0 | 0 | 0
O=C(CCl)N1CCN(c2ccccc2[N+](=O)[O-])CC1 [PCM-0103016] | 61.4% | 8.7% | 13.4% | 0.09 | 0.16 | 0 | 0.27
Cc1ccc(CN(C)C(=O)CCl)cc1 [PCM-0103017] | 73.9% | 67.7% | 58.2% | 0 | 0 | 0 | 0.09
CC1CCC(N(C)C(=O)CCl)CC1 (stereo not drawn) [PCM-0103019] | 40.7% | 39.2% | 39.9% | 0 | 0 | 0 | 0
O=C(CCl)NCC1Cc2ccccc2O1 (stereo not drawn) [PCM-0103020] | 88.9% | 99.1% | 87.1% | 0 | 0 | 0 | 0
CC(C)(C)C(=O)NC(=O)CCl [PCM-0103021] | 116% | 105% | 98.9% | 0 | 0 | 0 | 0
O=C(CCl)N1CCN(c2ncc(Cl)cc2Cl)CC1 [PCM-0103022] | 36.4% | 3.6% | 13.4% | 0 | 0 | 0 | 0.22
O=C(CCl)N1CCc2sccc2C1c1ccccc1 (stereo not drawn) [PCM-0103024] | 3% | 4.6% | 1.9% | 0 | 0 | 0 | 0.69
C=CC(=O)N1CCC2(CCc3ccccc3O2)C1 (stereo not drawn) [PCM-0103025] | 90.8% | 101% | 103% | 0.2 | 0 | 0 | 0
CC1CCCCC1N(C)C(=O)CCl (stereo not drawn) [PCM-0103026] | 57% | 18.3% | 31.2% | 0 | 0 | 0 | 0.12
COC(=O)c1ccc(C)c(NC(=O)CCl)c1 [PCM-0103027] | 54.7% | 34.3% | 22.1% | 0 | 0 | 0 | 0.05

Compound | viability at 48 h, 10 µM [1] | viability at 48 h, 10 µM [2] | viability at 48 h, 10 µM [3] | OTUB2 [4] | BSA [5] | PCAF [6] | NUDT7 [7]
CC1CCc2c(sc(NC(=O)CCl)c2C(N)=O)C1 (stereo not drawn) [PCM-0103029] | 63.2% | 21% | 18.6% | 0 | 0 | 0 | 0.09
CC(NC(=O)CCl)c1ccc2c(c1)OCO2 (stereo not drawn) [PCM-0103030] | 102% | 89.2% | 78.2% | 0.28 | 0 | 0 | 0.12
Cc1ccc2nc(NC(=O)CCl)sc2c1 [PCM-0103031] | 74.9% | 70.6% | 79.2% | 0.18 | 0 | 0 | 0.88
Cl.O=C(CCl)N1CCN(c2cccc(Cl)c2)CC1 [PCM-0103032] | 71.1% | 12% | 58.5% | 0.21 | 0 | 0 | 0.22
N#Cc1cccc(NC(=O)CCl)c1 [PCM-0103033] | 19.1% | 6.3% | 7.4% | 0.23 | 0 | 0 | 0
O=C(CCl)NC(=O)NCC(F)(F)F [PCM-0103037] | 78.2% | 89% | 95.7% | 0.3 | 0 | 0 | 0
O=C(CCl)N1CC=C(c2ccccc2)CC1 [PCM-0103038] | 86.8% | 90.9% | 89.2% | 0.09 | 0 | 0 | 0
C=CC(=O)Nc1cc(F)cc(F)c1 [PCM-0103039] | 93.3% | 86.7% | 67.1% | 0 | 0 | 0 | 0.06
O=C(CCl)Nc1ccc(F)cc1Cl [PCM-0103040] | 68.7% | 76.9% | 60.3% | 0 | 0 | 0 | 0
C=CC(=O)N1CCCC(c2ncc3n2CCCC3)C1 (stereo not drawn) [PCM-0103042] | 108% | 95.6% | 97.1% | 0 | 0.11 | 0 | 0
COc1ccc(C)cc1NC(=O)CCl [PCM-0103043] | 79.1% | 81.3% | 63.7% | 0.27 | 0 | 0 | 0.06
C=CC(=O)NCc1c2c(nn1C)CCCC2 [PCM-0103044] | 98.1% | 97.2% | 74.2% | 0.08 | 0 | 0 | 0
O=C(CCl)NC1CCOCC1 [PCM-0103045] | 77.7% | 100% | 110% | 0 | 0 | 0 | 0
CCC1c2ccsc2CCN1C(=O)CCl (stereo not drawn) [PCM-0103051] | 14% | 13.5% | 6% | 0 | 0 | 0 | 0.3
Cc1nc(-c2ccc(C)c(NC(=O)CCl)c2)n[nH]1 [PCM-0103052] | 43.4% | 57% | 39.1% | 0.09 | 0 | 0 | 0.12
C=CC(=O)NC1(C(=O)N2CCN(C)CC2)CCCC1 [PCM-0103054] | 109% | 99.9% | 110% | 0 | 0.08 | 0 | 0
